One may read the MIC as the lowest concentration found to suppress growth.

Values after ≈ are worked out from the molar mass of the structure shown. Where two headings read alike, the source gives them in different places.

Consider two compounds from patent publication US20210292807A1, “METHOD FOR TESTING ANTIMICROBIAL SUSCEPTIBILITY” (priority 2017, published 2021).

One test relates to Klebsiella isolates. Briefly: Acoustic flow cytometry-assisted susceptibility test (FAST), MICFAST and S/NS, Klebsiella isolates. Format: cell-based, Klebsiella pneumoniae, Klebsiella oxytoca. The arrangement: MICBMD / MICFAST data point (FIG. 8): unit not given here. Conditions: 10 of 14 K. pneumoniae isolates. The method, then:
A 1 mL aliquot of bacterial suspension was centrifuged, washed and resuspended in 1 mL filtered Hank's Buffered Salt Solution (HBSS; comprising about 0.137 M NaCl, about 5.4 mM KCl, about 0.25 mM Na2HPO4, about 0.1 g Glucose, about 0.44 mM KH2PO4, 1.3 mM CaCl2), 1.0 mM MgSO4, about 1.3 mM CaCl2), 1.0 mM MgSO4, and about 4.2 mM NaHCO3) and diluted in series (e.g., in a 1:10 serial dilution) to a final 1:1000 dilution.
One μL (microliter) of SYTO 9 stain (e.g., ThermoFisher Scientific) working stock solution was added to the final dilution at a final concentration of 5 μM and incubated for 5 minutes before counting bacterial events by acoustic flow cytometer (AFC) (Attune, ThermoFisher, Eugene, Oreg., USA), which was used to prepare a standardised inoculum density for susceptibility testing.
An aliquot of bacterial suspension was added to 50 mL centrifuge tubes (Corning, N.Y.) containing 9 mL of pre-warmed (37° C.) filtered MHB to produce a final density of 5×10^5-1×10^6 bacteria per mL. This suspension was incubated at 37° C. with shaking at 100 RPM for 30 minutes to obtain an actively dividing culture. An aliquot of antibiotic working solution from the previously described dilution series (appropriate to the concentration tested) was then added to each tube before a further 30-minute incubation with shaking, during which time a microbroth dilution (MBD) plate was prepared for overnight incubation at 37° C. as previously described in Clinical and Laboratory Standards Institute (2015) Performance Standards for Antimicrobial Susceptibility Testing: Informational Supplement. CLSI document M100-S25. Clinical and Laboratory Standards Institute, 950, West Valley Road, Suite 2500, Wayne, Pa., 19087, USA.
One millilitre of bacterial suspension from each antibiotic concentration was harvested by centrifugation at 7800×g for 5 minutes, washed and diluted 1:10 in filtered HBSS in a light-impermeable microcentrifuge tube, then stained with SYTO 9 stain at a final concentration of 5 μM, and incubated for 5 min before AFC sampling. Hoechst 33342 dye (NucBlue, Thermo Fisher Scientific, Eugene, Oreg., USA) and a SYTO 9/propidium iodide (PI) combination (Thermo Fisher Scientific) were used in a series of replicate experiments.
The acoustic flow cytometer employed was Attune acoustic flow cytometer (Thermo Fisher Scientific), having installed therein a 488 nm blue laser with a 530/30 nm filter on the photomultiplier tube for measuring fluorescence of cells assayed. Alternatively, the Attune NxT acoustic flow cytometer (Thermo Fisher Scientific) can be employed. AFC was calibrated at the beginning of each acquisition session using fluorescently labelled size calibration beads, in accordance with the manufacturer's instructions (ThermoFisher Scientific). The AFC settings were as follows: Forward Scatter (FSC) voltage 3100, FSC threshold 4×1000 AND, blue laser 1 (BL1—530/30 nm) voltage 1900, BL1 threshold 1×1000 AND, high sensitivity, flow rate 25 μL/minute, and an acquisition volume of 125 μL. Acquisition was halted after either collection of 20,000 events across all gates, or after 3 minutes, with each sample acquired in technical triplicate.
Collected data was exported in the FCS 3.0 file format and analysed in Flow v10.0 (FlowJo LLC, Ashland, Oreg., USA) by a single user, blinded to the MIC results by BMD (MICBMD).
Subsequent to quantitative MICFAST determination, the acoustic flow cytometer data were re-analysed in silico to produce a limited sub-set for qualitative susceptibility determination. The six antibiotic dilutions (0 mg/L, 0.25 mg/L, 1 mg/L, 2 mg/L, 4 mg/L and 16 mg/L) most relevant to qualitative susceptibility assessment were used. In silico analysis was restricted to the first technical triplicate of each recorded sample. Gating strategies remained consistent, with the addition of a gate restricting analysis to only those events recorded in the first 60 seconds of acquisition.
Background: Flow cytometry measures light scatter and fluorescence of single cells or particles in a stream.

A further test deals with K. pneumoniae. As to the kind of experiment: AFC susceptibility-associated signature for ceftriaxone and gentamicin (FIG. 19). Format: cell-based, Klebsiella pneumoniae. The text has this: FIG. 19 provides graphical and pictorial representations showing rapid determination of susceptibly of bacteria to antimicrobial using the using the AFC-assisted susceptibility testing method of the invention.
This example sets out to investigate utility of the AFC-assisted susceptibility testing method of the invention as a clinical test and tool which can inform use antimicrobial choice in the early hours of sepsis presentation, e.g., by applying the AFC-assisted susceptibility testing method directly to blood cultures.

On to `CO/N=C(\C(=O)N[C@@H]1C(=O)N2C(C(=O)O)=C(CSc3nc(=O)c(=O)[nH]n3C)CS[C@H]12)c1csc(N)n1` [ceftriaxone], for which the “MICBMD / MICFAST data point (FIG. 8)” value in the test on Klebsiella isolates stood at 256. The MIC in the test on K. pneumoniae (Klebsiella pneumoniae, K. pneumoniae susceptible type strain SSCC 43358, read-out: isolate's MIC (FIG. 19A)) amounted to 0.25 µg/mL (≈ 0.451 µM).
Compound gentamicin gave a minimal inhibitory concentration (MIC) in the test with K. pneumoniae (K. pneumoniae isolate 244606) of 1 µg/mL.
